From patent US4468469A, “Substituted phenylacetic acids and salts as TBP blocking agents in iodothyronine immunoassays” (Miles Laboratories, Inc., priority 1982, dated 1984)
Several values for one entry are separate records, joined by “and”; a condition that tells them apart may be missing. Equal entries are not always repeated. Where two headings read alike, the source gives them in different places.

Tests used:
[1] = Optical absorption spectra; type: physicochemical
dihydrofolate reductase = assay: Effect on the activity of dihydrofolate reductase; type: biochemical; conditions: for Absorbance Change Over 10 Minutes: 560 nm, 37° C.
Procedure: Assay mixtures were prepared to contain various concentrations of fenclofenac and, in a 1 ml final volume at 37° C., 0.3 mM thiazoyl blue, […] dihydrofolate, 0.5 mM NADPH, and 0.012 Units/ml of dihydrofolate reductase. The absorbance of each reaction mixture at 560 nm was read over a 10 minute incubation period at 37° C.

antibody to thyroxine = assay: Effect on the binding of 125I-thyroxine with antibody (polyethyleneglycol precipitation); conditions: for Percent 125I-Thyroxine in Precipitate: percent of radioactivity without fenclofenac, 180 min
Procedure: A series of antibody binding reactions were set up in 0.1M sodium phosphate buffer, pH 6.5, to give final volumes of 0.6 ml containing various concentrations of fenclofenac. Each reaction contained ^125 I-thyroxine, 20 μl of normal rabbit immunoglobulin, and 2 μl of antibody to thyroxine. The mixtures were incubated at room temperature for about 3 hours and then 400 μl of 50% (w/v) polyethyleneglycol was added. The precipitated proteins were collected by centrifugation and the radioactivity in each precipitate was measured. The results are shown in Table 2 as percent of the radioactivity in the precipitate without fenclofenac.

[2] = test system: rabbit antibody to thyroxine; assay: Radioimmunoassay for thyroxine in serum with fenclofenac as TBP blocking agent; type: binding; conditions: 0.67 mM fenclofenac
Procedure: A radioimmunoassay for thyroxine in serum was conducted using fenclofenac as the TBP blocking agent. Serum standards in 100 μl aliquots containing known concentrations of thyroxine were combined with 290 μl of 0.1M sodium phosphate buffer, pH 6.5, an amount of fenclofenac to give a concentration of 0.67 mM in the final assay mixture, 2 μl of rabbit antibody to thyroxine, and a fixed amount of ^125 I-thyroxine (approximately 34,000 counts per minute per 100 μl in the final volume). After incubation at room temperature for 2 hours, 400 μl of 50% (w/v) polyethyleneglycol was added and the resulting precipitates collected by centrifugation. The radioactivity of each precipitate was then measured. The results are shown in Table 3 (μg/dl is micrograms per deciliter).

[3] = test system: serum proteins (thyroxine binding protein, TBP); assay: Effect of pH on the dissociation of iodothyronine from serum proteins; design: species or system human; conditions: for Percent Dissociated: dissociating agent 2.0 mM
Procedure: (§1) Radioactive iodine labeled thyroxine (^125 I-thyroxine obtained from Amersham-Searle, Arlington Heights, IL, USA) was equilibrated with 5 ml of normal human serum for 48 hours at 4° C. […] After 5 minutes of incubation at room temperature, a 165 μl aliquot was applied to a Sephadex® column from a Seralute® thyroxine assay kit (Miles Laboratories, Inc., Ames Division, Elkhart, IN, USA), which had been equilibrated with 0.1M sodium phosphate, pH 7.0. The total radioactivity applied to the columns was measured and the undissociated material was washed through the column with 3 ml of buffer. The columns were counted to determine the percentage of thyroxine dissociated from the serum proteins.
Using the column procedure described in the second study in Example 1, the pH of the 0.1M sodium phosphate was varied and the concentration of the dissociating agent held constant at 2.0 mM. The columns were equilibrated with buffer containing the dissociating agent at the given pH and 165 μl of the serum diluted in buffer at the given pH (as described above) was applied to the column. The total counts were measured and then the columns were washed with buffer at the given pH. The counts remaining on the column represent the percentage of iodothyronine dissociated.

[4] = test system: serum proteins (thyroxine binding protein, TBP); assay: Dissociation of thyroxine from human serum, second experiment (Seralute Sephadex column, pH 7.0); conditions: for release and block the binding of protein-bound iodothyronine: summary of both experiments of Example I; for Percent Dissociated: pH 7.0, 5 min
Procedure: as §1

apoglucose oxidase = apoglucose oxidase (Aspergillus niger, UniProt P13006); assay: Activation of apoglucose oxidase by FAD-thyroxine conjugate; type: biochemical; conditions: 5.5 min, pH 7; for activity at 160 µM: 0.16 mM fenclofenac; for activity at 310 µM: 0.31 mM fenclofenac; for activity at 630 µM: 0.63 mM fenclofenac; for activity at 1250 µM: 1.25 mM fenclofenac; for activity at 2500 µM: 2.5 mM fenclofenac; for activity at 5000 µM: 5.0 mM fenclofenac; for activity at 10000 µM: 10.0 mM fenclofenac
apoglucose oxidase, sequence (P13006 17-605): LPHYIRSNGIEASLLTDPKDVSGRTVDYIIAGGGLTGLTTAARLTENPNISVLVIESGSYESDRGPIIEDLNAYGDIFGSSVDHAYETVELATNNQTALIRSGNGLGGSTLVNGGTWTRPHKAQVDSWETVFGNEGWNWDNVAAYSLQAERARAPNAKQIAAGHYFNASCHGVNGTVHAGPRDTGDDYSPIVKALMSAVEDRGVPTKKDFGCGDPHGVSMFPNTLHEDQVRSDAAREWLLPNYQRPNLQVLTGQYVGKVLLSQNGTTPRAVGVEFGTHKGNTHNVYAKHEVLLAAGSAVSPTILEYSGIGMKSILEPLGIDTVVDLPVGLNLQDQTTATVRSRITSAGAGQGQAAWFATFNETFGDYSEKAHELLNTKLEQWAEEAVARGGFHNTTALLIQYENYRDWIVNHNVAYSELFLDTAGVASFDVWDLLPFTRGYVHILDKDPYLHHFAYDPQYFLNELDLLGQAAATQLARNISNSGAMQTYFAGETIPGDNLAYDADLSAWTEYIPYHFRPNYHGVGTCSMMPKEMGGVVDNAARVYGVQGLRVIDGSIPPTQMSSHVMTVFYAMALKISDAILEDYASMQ
Procedure: In a second study, the effect of fenclofenac on the activation of apoglucose oxidase by an FAD-iodothyronine (T-4) conjugate was investigated. The activation of apoglucose oxidase was set up with different concentrations of fenclofenac and performed at 37° C. To two sets of assays containing 96 mM sodium phosphate, pH 7.0, 95 mM glucose, 1.0 mM sodium dichlorohydroxybenzene sulfonate (DHSA), 19 μg/ml peroxidase and various concentrations of sodium fenclofenac were added apoglucose oxidase, 4-aminoantipyrine, and anti(glucose oxidase) at final concentrations of 100 nM, 100 μM, 5 μl/ml respectively or 2.1 nM final concentration of an FAD-thyroxine conjugate. After preincubating the assay media for 5 min at 37° C. the FAD-thyroxine conjugate or the apoglucose oxidase reagent was added to the appropriate assay set. The absorbance at 520 nm was recorded after a 330 second incubation. The data are presented as a percentage of the absorbance recorded when no fenclofenac is present.

[5] = read-out: percentage of the absorbance at 520 nm without fenclofenac, Started with Apoenzyme Addition
[6] = read-out: percentage of the absorbance at 520 nm without fenclofenac, Started with Conjugate Addition

O=C(O)Cc1ccccc1Oc1ccc(Cl)cc1Cl [Fenclofenac, 2-(2,4-dichlorophenoxy)phenylacetic acid]
optical absorption above 300 nm ([1]; 0.5 mM solution in 0.1M sodium phosphate buffer, pH 6.5): no significant absorption above 300 nanometers | visible color of solution ([1]; 50 mM solution in dilute sodium hydroxide): no visible color | λmax ([1]; in 0.1M sodium hydroxide): 275 nanometers and 269 nanometers | λmin ([1]; in 0.1M sodium hydroxide): 257 nanometers | ε max (NaOH), extinction coefficient ([1]; in 0.1M sodium hydroxide, at λmax): 2060 M⁻¹ cm⁻¹ and 2050 M⁻¹ cm⁻¹ | ε min (NaOH), extinction coefficient ([1]; in 0.1M sodium hydroxide, at λmin): 1520 M⁻¹ cm⁻¹ | Absorbance Change Over 10 Minutes (dihydrofolate reductase; 0.1 mM fenclofenac): 0.359 | Absorbance Change Over 10 Minutes (dihydrofolate reductase; 0.2 mM fenclofenac): 0.365 | Absorbance Change Over 10 Minutes (dihydrofolate reductase; 0.5 mM fenclofenac): 0.355 | Absorbance Change Over 10 Minutes (dihydrofolate reductase; 1.0 mM fenclofenac): 0.332 | Absorbance Change Over 10 Minutes (dihydrofolate reductase; 2.5 mM fenclofenac): 0.273 | Absorbance Change Over 10 Minutes (dihydrofolate reductase; 5.0 mM fenclofenac): 0.118 | inhibition of enzyme activity (dihydrofolate reductase) (dihydrofolate reductase; concentrations below 1.0 mM): did not give substantial inhibition | Percent 125I-Thyroxine in Precipitate (antibody to thyroxine; 0.2 mM fenclofenac): 97% | Percent 125I-Thyroxine in Precipitate (antibody to thyroxine; 0.5 mM fenclofenac): 80% | Percent 125I-Thyroxine in Precipitate (antibody to thyroxine; 1.0 mM fenclofenac): 69% | Percent 125I-Thyroxine in Precipitate (antibody to thyroxine; 2.5 mM fenclofenac): 61% | Percent 125I-Thyroxine in Precipitate (antibody to thyroxine; 5.0 mM fenclofenac): 43% | inhibition of the antibody binding reaction (antibody to thyroxine; concentrations below about 2.5 mM): about 40% | inhibition of the antibody binding reaction (antibody to thyroxine; concentrations below about 5 mM): about 50% | Counts per Minute in Precipitate ([2]; thyroxine standard 0 μg/dl): 23,700 Counts per Minute | Counts per Minute in Precipitate ([2]; thyroxine standard 1.0 μg/dl): 21,800 Counts per Minute | Counts per Minute in Precipitate ([2]; thyroxine standard 2.5 μg/dl): 17,300 Counts per Minute | Counts per Minute in Precipitate ([2]; thyroxine standard 5.0 μg/dl): 14,400 Counts per Minute | Counts per Minute in Precipitate ([2]; thyroxine standard 10.0 μg/dl): 10,000 Counts per Minute | Counts per Minute in Precipitate ([2]; thyroxine standard 20.0 μg/dl): 7,500 Counts per Minute | pH dependence of the dissociation of iodothyronine from serum proteins ([3]; over the range pH 6.0-8.0, 2.0 mM): independent of pH | Percent Dissociated ([3]; pH 6.0): 84% | Percent Dissociated ([3]; pH 6.5): 84% | Percent Dissociated ([3]; pH 7.0): 86% | Percent Dissociated ([3]; pH 7.5): 85% | Percent Dissociated ([3]; pH 8.0): 83% | release and block the binding of protein-bound iodothyronine ([4]; 0.25 mM in immunoassay reaction mixture): 40-50% | release and block the binding of protein-bound iodothyronine ([4]; 0.50 mM in immunoassay reaction mixture): 60-70% | Percent Dissociated ([4]; dissociating agent 0.25 mM): 40% | Percent Dissociated ([4]; dissociating agent 0.50 mM): 61% | Percent Dissociated ([4]; dissociating agent 1.00 mM): 71% | Percent Dissociated ([4]; dissociating agent 2.00 mM): 75% | Percent Dissociated ([4]; dissociating agent 4.00 mM): 79% | Percent Dissociated ([4]; dissociating agent 8.00 mM): 81% | activity at 160 µM (apoglucose oxidase; [5]): 100% | activity at 160 µM (apoglucose oxidase; [6]): 97% | activity at 310 µM (apoglucose oxidase; [5]): 98% | activity at 310 µM (apoglucose oxidase; [6]): 92% | activity at 630 µM (apoglucose oxidase; [5]): 97% | activity at 630 µM (apoglucose oxidase; [6]): 94% | activity at 1250 µM (apoglucose oxidase; [5]): 93% | activity at 1250 µM (apoglucose oxidase; [6]): 95% | activity at 2500 µM (apoglucose oxidase; [5]): 90% | activity at 2500 µM (apoglucose oxidase; [6]): 85% | activity at 5000 µM (apoglucose oxidase; [5]): 78% | activity at 5000 µM (apoglucose oxidase; [6]): 74% | activity at 10000 µM (apoglucose oxidase; [5]): 53% | activity at 10000 µM (apoglucose oxidase; [6]): 54% | inhibition at 2000 µM (apoglucose oxidase; about 2 mM fenclofenac, FAD-thyroxine conjugate, read-out: colorimetric response diminished): 8 to 10%
